Assay results from PMC7363588, “Mapping of the FGF14:Nav1.6 complex interface reveals FLPK as a functionally active peptide modulating excitability” (Physiological Reports, 2020).
Peptide text beside a SMILES is read from it.

Tests used:
[1] = test system: FGF14^Y158A:Nav1.6 complex; assay: LCA, CLuc-FGF14^Y158A; type: cell-based, human; settings: 50 µM peptide, 12 hr, HEK293, vs DMSO
FGF14 = molecular target: T1, FGF14 (Homo sapiens, UniProt Q92915); assay: SPR binding to FGF14; settings: for binding to FGF14: SPR
T1 construct: aa 64–252); 6X His (N); made in house; host or cells: E. coli BL21 (DE3) pLys
T1 sequence (Q92915 64-252 isoform Q92915-2): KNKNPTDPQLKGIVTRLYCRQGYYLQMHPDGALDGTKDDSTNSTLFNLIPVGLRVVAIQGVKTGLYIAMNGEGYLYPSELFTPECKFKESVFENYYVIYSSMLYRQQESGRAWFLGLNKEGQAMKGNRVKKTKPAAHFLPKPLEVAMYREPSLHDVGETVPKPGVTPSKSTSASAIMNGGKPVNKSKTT
Excerpt: Plasmids used in this study derived from the following clones: human FGF14‐1b isoform (accession number: NM_175929.2) and human Nav1.6 (accession number: NM_014191.3). The CLuc‐FGF14, CD4‐Nav1.6‐NLuc, constructs and the pcDNA3.1 vector (Invitrogen, Carlsbad, CA) were engineered and characterized as previously described (Goetz et al., 2009; Shavkunov et al., 2012,2013,2015; Ali et al., 2016, 2018; Wadsworth et al., 2019). The plasmid pGL3 expressing full length Firefly (Photinus pyralis) luciferase was a gift from Dr. P. Sarkar (Department of Neurology, UTMB). For protein purification studies, cDNAs encoding FGF14‐1b (accession number NP_787125; aa 64–252) or the C‐terminal tail of Nav1.6 (accession number #NP_001171455; aa 1756–1939) were subcloned into suitable pET bacterial expression vectors (pET28a‐FGF14; pET30a‐Nav1.6) with a 6X His‐tag at the N‐terminal site; these plasmids were a gift of Dr. Moosa Mohammadi (NYU, Langone Medical Center). The mutation coding for FGF14^V160A was generated by site‐directed mutagenesis and PCR using FGF14‐1b as a template described previously (Ali et al., 2016). For electrophysiological studies FGF14‐GFP (human) and FGF14‐ΔNT‐GFP (human) were cloned into the GFP plasmid (pQBI‐fC2; Quantum Biotechnology Inc., Montreal, Canada) as previously described.
Upon transformation with corresponding cDNA clones, the recombinant proteins FGF14, FGF14^V160A and Nav1.6 C‐terminal tail were expressed in E. coli BL21 (DE3) pLys (Invitrogen) after induction with 0.1 mM isopropyl thio‐β‐D‐galacto‐pyranoside (IPTG) for 24 hr at 16°C. After induction with IPTG, bacterial cells were harvested and lysed by sonication at 4°C in lysis/binding buffer containing following components (mM): sodium phosphate 10 (prepared from 0.5 M of Na2HPO4 and NaH2PO4) + 3‐cholamidopropyl dimethylammonio 1‐propanesulfonate 0.1% pH 7.0 (for FGF14 proteins) + HEPES 25 + NaCl 150 + glycerol 10% (Nav1.6) pH 7.5 and containing 0.1 mM phenyl methyl sulphonyl fluoride (PMSF). The respective proteins were centrifuged at 18,000 g for 30 min at 4°C. For purification of FGF14 and FGF14^V160A, the supernatant was applied to preequilibrated heparin and the proteins were then eluted with NaCl 0.2–2.0 M in the elution (sodium phosphate 10 mM + NaCl 0.2–2.0 M pH 7.0) buffer. For purification of the Nav1.6 C‐tail, the supernatant was applied first to Ni^2+ NTA column and eluted with imidazole (200 mM). The Nav1.6 C‐tail was further purified using HiTrap QFF‐sepharose column (GE Healthcare Bio‐Sciences, Pittsburgh, PA) with a buffer containing Tris‐HCl 50 mM and eluted with NaCl (10–500 mM) at pH 7.5. Finally, all concentrated proteins were purified on an AKTA FPLC purifier using Superdex 200 Hiload 16 × 60 columns (GE Healthcare Bio‐Sciences) and equilibrated in Tris‐HCl 50 mM + NaCl 150 mM, pH 7.5 (Ali et al., 2016; Scala et al., 2018).
SPR experiments were performed on a Biacore T100 (GE Healthcare Bio‐Sciences, Pittsburgh, PA), and the interaction of FGF14 and Nav1.6 channel toward FLPK, PLEV and EYYV (1–100 µM) were studied at 25°C. To analyze the effects of FLPK, PLEV and EYYV on FGF14^WT (RU 16,000), FGF14^V160A (RU 18,000) and Nav1.6 C‐tail (RU 12,000), the proteins were immobilized on CM5 sensor chip using Acetate 5.5 with Amine Coupling Kit (Biacore GE Healthcare Bio‐Sciences). No protein was coupled to the control flow channel of the chip. Using a flow rate of 50 µl/min, FLPK, PLEV and EYYV (1–100 µM) diluted in HBS‐P^+ buffer were injected over the chip for 180 s, followed by injection of HBS‐P+ for 180 s to monitor dissociation, and finally the chip surface was regenerated with NaCl (200 mM). For each peptide injection, nonspecific responses (buffer only) were subtracted from experimental sensograms/traces prior to data analysis. Maximal equilibrium responses were plotted against peptide concentrations and association rate constant (kon), dissociation rate constatnt (koff) were determined. […]

[2] = Biacore T100, CM5, 25°C, peptide 1–100 µM in HBS-P+ pH 7.4, FGF14 RU 16,000, N.M. = not measurable

Compound	effect on FGF14^Y158A:Nav1.6 complex formation [1]	koff, dissociation rate constant (FGF14; [2])	kon, association rate constant (FGF14; [2])	binding to FGF14 (FGF14; peptide 1–100 µM)	koff (FGF14; Biacore T100, CM5, 25°C, peptide 1–100 µM in HBS-P+ pH 7.4, FGF14 RU 16,000, N.M. = not measurable, read-out: koff, dissociation rate constant) [s⁻¹]	Kd (FGF14; Biacore T100, CM5, 25°C, peptide 1–100 µM, read-out: KD, equilibrium constant) [µM]
EYYV [tetrapeptide previously designed from FGF14:FGF14 dimer interface; docked with N-terminal acetylation and C-terminal amidation]	increased the inhibition	N.M.	N.M.	no appreciable affinity to either protein was detected	–	–
PLEV [tetrapeptide previously designed from FGF14:FGF14 dimer interface; docked with N-terminal acetylation and C-terminal amidation]	increased the inhibition	N.M.	N.M.	no appreciable affinity to either protein was detected	–	–
CC(=O)N[C@@H](Cc1ccccc1)C(=O)N[C@@H](CC(C)C)C(=O)N1CCC[C@H]1C(=O)N[C@@H](CCCCN)C(N)=O [FLPK] (Ac-FLPK-NH2)	abolished the effect of FLPK	–	–	only FLPK exhibited measurable affinity	0.000431	4.97
